Measurements taken from article PMC10609270 (Molecules, 2023).
“Also recorded” adds a separate entry of the source. Where two headings read alike, the source gives them in different places.

Columns and labels:
A549 cells = test: Sulforhodamine B (SRB) cytotoxicity assay in A549 cells; format: cell-based, human; details: for Cytotoxicity in A549 human lung cells: 48 h, SRB, five serial dilutions
Experimental: (§1) To determine the cytotoxic effect of the tested compounds, the SRB assay was performed according to the previously described protocols. The concentration of each compound that caused 50% of cell growth inhibition (GI50) was determined from the dose response curve. A549 cells were plated in 96-well plates at a previously determined optimal cell concentration (5 × 10^4 cells/mL) and incubated for 24 h. Then, cells were treated with different concentrations of the tested compounds for 48 h. The following procedure was accomplished as previously described. Using the Gen5^TM software (version 1.04.5), the absorbance was measured at 510 nm in a multiplate reader (Synergy^TM Mx, Biotek Instruments Inc., Winooski, VT, USA).

Vero CCL-81 cells [1] = test: cells; format: cell-based, African green monkey; details: non-infected Vero CCL-81, 48 h; for IC50: Chlorocebus sabaeus, DAPI, read-out: IC50 (ñ inf), relative cell nucleus number
in vitro = details: African green monkey
SARS-CoV-2 [2] = format: cell-based
ACE2 [3] = format: cell-based, African green monkey; details: compounds at IC50 (50 μM for 9); for ACE2 levels compared to vehicle: infected Vero CCL-81, Western blot; for ACE2 Levels (Vero CCL-81 Monkey Cells): infected cells
ACE2 [4] = test: ACE2 expression levels in MDA-MB-231 cells (Western blot); format: cell-based, human; details: 10 μM, 48 h
Experimental: For protein expression analysis, MDA-MB-231 and Vero CCL-81 cells were seeded in 6-well plates and incubated for 24 h. Then, the cells were treated with the tested compounds at 10 μM or at their respective IC50. Cell pellets were collected after 48 h incubation, and the following lysis, quantification, and Western Blot procedures were performed as previously described, except for the following points: (i) no phosphatase inhibitor was used; (ii) a total of 15 μg of protein lysates obtained from MDA-MB-231 cells treatment or 50 μg of protein lysates obtained from Vero CCL-81 cells were loaded and separated in 10% SDS-Page gels; (iii) the transference to a nitrocellulose membrane (GE Healthcare Life science, Chalfont St Giles, UK; GE10600002) occurred for 1 h 45 min at 100 V; (iv) the primary antibodies (1:2000) used were: mouse anti-ACE2 monoclonal antibody (CL4035; Thermo Fischer Scientific; Waltham, MA, USA) and mouse anti-actin (sc-47778; Santa Cruz Biotechnology, Dallas, TX, USA).

Vero CCL-81 cells [5] = tested on: Vero CCL-81 cells
SARS-CoV-2 [6] = test: microbe, parasite or virus in culture; format: cell-based
spike protein = format: cell-based, SARS-CoV-2
[7] = Sulforhodamine B (SRB) cytotoxicity assay in A549 cells; format: cell-based, human; details: human, A549 cells; SRB assay, 48 h; read-out: Cytotoxic IC50 (A549 Human Lung Cells)
Experimental: as §1

Vero CCL-81 cells [8] = test: cells; details: Chlorocebus sabaeus, 48 h, read-out: IC50 (inf), relative cell nucleus number
[9] = Severe acute respiratory syndrome coronavirus 2, in Primates, 48 h, read-out: Antiviral IC50 (Vero CCL-81 Monkey Cells)
[10] = Homo sapiens, A549, 48 h, read-out: GI50 (concentration that inhibits 50% of cell growth), A549, 48 h, SRB assay

| Structure (SMILES) | Viral titer (SARS-CoV-2 [2]) | ACE2 levels compared to vehicle (ACE2 [3]) | ACE2 Levels (Vero CCL-81 Monkey Cells) (ACE2 [3]) | Cytotoxicity in infected Vero CCL-81 cells (number of cell nuclei) (Vero CCL-81 cells [5]) | IC50 (SARS-CoV-2 [6]; [9]) | Levels of spike protein compared to vehicle (spike protein) | Relative cell number of non-infected cells (Vero CCL-81 cells [1]) | Effect on cell infection by SARS-CoV-2 (SARS-CoV-2 [6]) | also measured |
| --- | --- | --- | --- | --- | --- | --- | --- | --- | --- |
| Cc1ccnc(NS(=O)(=O)c2ccc(NC3c4ccccc4Oc4ccccc43)cc2)n1 [Compound 1] | 1.4 × 10^3 FFU/mL | did not alter ACE2 expression significantly | − | some cytotoxicity | 12.6 µM | significantly decreased |  |  | Cytotoxicity in A549 human lung cells (A549 cells): did not exhibited cytotoxicity at the tested concentrations; GI50 (concentration that inhibits 50% of cell growth) (A549 cells; A549, 48 h, SRB assay): not reached with the concentrations tested; IC50 (Vero CCL-81 cells [1]): 28.9 µM; IC50 (in vitro): 18.4 µM; ACE2 expression levels in MDA-MB-231 cells (ACE2 [4]): did not significantly affect |
| Cc1cc(C)nc(NS(=O)(=O)c2ccc(NC3c4ccccc4Oc4ccccc43)cc2)n1 [Compound 2] | 1.7 × 10^3 FFU/mL | did not alter ACE2 expression significantly | − | some cytotoxicity | 11.9 µM | significantly decreased |  |  | IC50 at 48 h [7]: 31.9 µM; GI50 (A549 cells; [10]): 31.9 µM; IC50 (Vero CCL-81 cells [1]): 19.8 µM; IC50 (in vitro): 17.2 µM; ACE2 expression levels in MDA-MB-231 cells (ACE2 [4]): did not significantly affect |
| O=C(NC1c2ccccc2Oc2ccccc21)N(O)C1c2ccccc2Oc2ccccc21 [Compound 3] |  |  |  | significantly higher cytotoxicity in infected cells compared to non-infected cells |  |  | increased the relative cell number of non-infected cells | did not inhibit cell infection |  |
| C[C@H](CCC(=O)N1CCOCC1)[C@H]1CC[C@H]2[C@@H]3CC[C@@H]4C[C@H](O)CC[C@]4(C)[C@H]3C[C@H](O)[C@]12C [Compound 4] | 1.5 × 10^3 FFU/mL | did not alter ACE2 expression significantly | − |  | 24.1 µM | significantly decreased | increased the relative cell number of non-infected cells |  | IC50 at 48 h [7]: 19.8 µM; GI50 (A549 cells; A549, 48 h, SRB assay, read-out: GI50 (concentration that inhibits 50% of cell growth)): 19.8 µM; GI50 (A549 cells; [10]): 19.8 µM; ACE2 expression levels in MDA-MB-231 cells (ACE2 [4]): did not significantly affect |
| Nc1cccc2c1CCN(c1ccc3c(=O)c4ccc(N5CCc6c(N)cccc6C5)cc4oc3c1)C2 [Compound 5] |  |  |  |  |  |  |  | did not inhibit cell infection |  |
| O=c1c2ccc(OCc3cn(C4OC(CO)C(O)C(O)C4O)nn3)cc2oc2cc(OCc3cn(C4OC(CO)C(O)C(O)C4O)nn3)ccc12 (stereo not shown) [Compound 6] |  |  |  |  |  |  |  | did not inhibit cell infection |  |
| O=c1c2ccc(OCc3cn(C4OC(COS(=O)(=O)O)C(OS(=O)(=O)O)C(OS(=O)(=O)O)C4OS(=O)(=O)O)nn3)cc2oc2cc(OCc3cn(C4OC(COS(=O)(=O)O)C(OS(=O)(=O)O)C(OS(=O)(=O)O)C4OS(=O)(=O)O)nn3)ccc12 (stereo not shown) [Compound 7] | 6.1 × 10^3 FFU/mL | slight decrease; also recorded: did not alter ACE2 expression significantly | − | without causing cytotoxicity | 31.7 µM | did not cause any significant change | increased the relative cell number of non-infected cells |  | Cytotoxicity in A549 human lung cells (A549 cells): did not exhibited cytotoxicity at the tested concentrations; Viral Titer and Spike Levels (Vero CCL-81 Monkey Cells) (SARS-CoV-2 [2]): − |
| O=c1c2ccccc2oc2c(O)c(OC3OC(COS(=O)(=O)O)C(OS(=O)(=O)O)C(OS(=O)(=O)O)C3OS(=O)(=O)O)ccc12 (stereo not shown) [Compound 8] |  |  |  |  |  |  |  | did not inhibit cell infection |  |
| O=c1c2ccc(OCc3cn(C4OC(COS(=O)(=O)O)C(OS(=O)(=O)O)C(OS(=O)(=O)O)C4OS(=O)(=O)O)nn3)cc2oc2cc(OCc3cn(C4OC(COS(=O)(=O)O)C(OS(=O)(=O)O)C(OS(=O)(=O)O)C4OS(=O)(=O)O)nn3)ccc12 (stereo not shown) [Compound 9] | 7.0 × 10^3 FFU/mL | did not alter ACE2 expression significantly | − | without causing cytotoxicity |  | did not cause any significant change | increased the relative cell number of non-infected cells | reduced cell infection | Cytotoxicity in A549 human lung cells (A549 cells): did not exhibited cytotoxicity at the tested concentrations; Viral Titer and Spike Levels (Vero CCL-81 Monkey Cells) (SARS-CoV-2 [2]): −; IC50(viral), relative number of infected cells (SARS-CoV-2 [6]): not reached at the tested concentrations |
| O=c1c2ccc(NCc3ccccc3)cc2oc2cc(OS(=O)(=O)C(F)(F)F)ccc12 [Compound 10] |  |  |  |  |  |  | increased the relative cell number of non-infected cells | did not inhibit cell infection |  |
| Cc1ccc(C(=O)Nc2ccc(CN3CCN(C)CC3)c(C(F)(F)F)c2)cc1C#Cc1cnc2cccnn12 [Ponatinib, reference compound] |  |  |  | some cytotoxicity |  |  |  | did not inhibit cell infection | IC50 (Vero CCL-81 cells [1]): 1.36 µM; IC50 (SARS-CoV-2 [6]; Severe acute respiratory syndrome coronavirus 2, 48 h, read-out: IC50(viral), relative number of infected cells): 0.93 µM; IC50 (Vero CCL-81 cells [8]): 0.7 µM |
